What was measured:
U1 cells = assay: MTS staining for cell viability in U1 cell assay; format: cell-based; details: analogs, Table 8, MTS, read-out: TC50 (the source's name)
Method: (§1) At the time of the assay, cells were collected by centrifugation and counted by hemacytometer. If cell viability by Trypan Blue dye exclusion was less than 70% the assay was terminated. The cells were adjusted to 5×10^4 cells/mL and 100 μL placed in 96 well plates with 100 μL media containing a final concentration of 5 ng/mL TNF-α and the test compound. Cultures were incubated for 3 days and supernatants harvested. Compound toxicity was determined by MTS dye reduction. Virus expression was measured by supernatant reverse transcriptase activity.
At assay termination, the assay plates were stained with the soluble tetrazolium-based dye MTS (CellTiter 96 Reagent, Promega) to determine cell viability and quantify compound toxicity as described for the PBMC assay.
(§2) Compounds were tested in the U1 latency assay using the maximum high-test concentration possible based on the supplied stocks which are listed in table 3. Compounds were tested using the maximum high-test concentration possible based on the supplied stocks. Compounds were prepared at a 2× high-test concentration by combining drug stock with tissue culture media at a ratio of 5 μL of drug to 995 μL of media. This 2× high-test sample was subsequently serially diluted in tissue culture media using 1/2 log dilutions. This series of 2× concentrated drug was subsequently diluted 1:1 by combining with an equal volume of cells in media in the 96-well plates used for the assay. Temacrazine a known inhibitor of HIV transcription was used as a control compound that is active in the post-integration part of the HIV life cycle.
(§3) Compounds were tested using the maximum high-test concentration possible based on the supplied stocks. Compounds were prepared at a 2× high-test concentration by combining drug stock with tissue culture media at a ratio of 5 μL of drug to 995 μL of media. This 2× high-test (HT) sample was subsequently serially diluted in tissue culture media using 1/2 log dilutions. This series of 2× concentrated drug was subsequently diluted 1:1 by combining with an equal volume of cells in media in the 96-well plates used for the assay.

[1] = system: U1 cells latently infected with HIV-1; assay: U1 latency activation assay (TNF-α induced, supernatant reverse transcriptase); format: cell-based; details: U1 cell assay, analogs, Table 8
Method: U1 cells were obtained from the AIDS Research and Reference Reagent Program and maintained under standard culture conditions in RPMI 1640 supplemented with 10% fetal bovine serum (heat inactivated), 2 mM L-glutamine, 100 U/mL penicillin and 100 μg/mL streptomycin. U1 cells are derived from the histocytic leukemia cell line U937, and contain an integrated copy of a cytokine and/or phorbol inducible provirus (HIV-1IIIB). Cultures were maintained in such a way as to ensure exponential growth of the populations. Addition of TNF-α to the cell culture induces HIV-1, so that inhibition of virus production indicates an inhibition of a post-integration function of the HIV-1 life cycle. This is where an inhibitor of Rev function would be expected to act. […]
as §1
Reverse transcriptase was assayed to measure virus particle release as described above for the PBMC assay.
as §2, §3

Row | SMILES | CC50 (U1 cells) | IC50 [1]
1 | Cc1n[nH]c2nc3ccc(Cl)cc3c(-c3ccccc3)c12 [Compound 111] | > 50 µM | 1.7 µM
2 | Cc1n[nH]c2nc3ccc(Br)cc3c(-c3ccccc3)c12 [Compound 112] | > 50 µM | 1.08 µM
3 | COc1cc2cc(C(=O)Nc3ccccc3)c(N)nc2cc1OC [Compound 113] | > 75 µM | 27.4 µM
4 | COc1cc2cc3c(=O)[nH]c(-c4ccc(C)cc4)nc3nc2cc1OC [Compound 114] | > 75 µM | 14.4 µM
5 | COc1ccc2nc3c(c(N)c2c1)CCCC3 [Compound 211] | 48.5 µM | 9.11 µM
6 | N#Cc1c(C(F)(F)F)nc2ccc(F)cc2c1N [Compound 212] | 28.6 µM | 0.484 µM
7 | Nc1c2c(nc3ccc([N+](=O)[O-])cc13)CCCC2=O [Compound 213] | 58.6 µM | 0.826 µM
8 | C=CCc1c(C)nc2ccc(OC)cc2c1N [Compound 214] | > 75 µM | 9.19 µM
9 | COc1ccc(-c2c(C(C)=O)c(C)nc3sc(C(N)=O)c(N)c23)cc1 [Compound 311] | > 75 µM | 1.65 µM
10 | CCc1c(C)nc2sc(C(=O)c3ccc(Cl)cc3)c(N)c2c1C [Compound 313] | > 50 µM | > 50 µM
11 | Cc1ccc2c(N)c(C(N)=O)sc2n1 [Compound 314] | > 75 µM | 2.11 µM
12 | Cc1nc2sc(C(N)=O)c(N)c2c(C)c1CC(=O)c1ccccc1 [Compound 315] | > 75 µM | 0.75 µM
13 | NC(=O)c1sc2nc(-c3cccnc3)ccc2c1N [Compound 316] | > 75 µM | 23.4 µM
14 | NC(=O)c1sc2nc(-c3cccs3)cc(C(F)(F)F)c2c1N [Compound 317] | > 75 µM | > 75 µM
15 | Cc1cc(C(F)(F)F)c2c(N)c(C(N)=O)sc2n1 [Compound 318] | > 75 µM | < 0.237 µM
16 | CN1CCc2nc3sc(C(N)=O)c(N)c3cc2C1 [Compound 319] | > 37.5 µM | 20.2 µM
17 | COCc1cc(C)nc2sc(C(N)=O)c(N)c12 [Compound 320] | > 75 µM | 0.522 µM
18 | NC(=O)c1sc2nc3c(cc2c1N)CCCC3 [Compound 321] | > 75 µM | 1.94 µM
19 | NC(=O)c1sc2nc(-c3cccs3)cc(-c3ccc(F)cc3)c2c1N [Compound 322] | 17.4 µM | 8.84 µM
20 | Cc1ccc(-c2cc(-c3ccccc3)nc3sc(C(N)=O)c(N)c23)cc1 [Compound 323] | 22.6 µM | 0.745 µM
21 | NC(=O)c1sc2nc3c(cc2c1N)CCC3 [Compound 324] | > 75 µM | 2.19 µM
22 | CN(C)c1ccnc2sc(C(N)=O)c(N)c12 [Compound 325] | > 75 µM | 0.281 µM
23 | CCOC(=O)c1c2c(nc3sc(C(N)=O)c(N)c13)CCCC2 [Compound 327] | 65.8 µM | 0.601 µM

Row | SMILES | CC50 (U1 cells) | IC50 [1]
24 | Cc1cc2c(N)c(C(N)=O)sc2nc1C [Compound 328] | 37 µM | 1.06 µM
25 | CCCc1ccc2c(N)c(C(N)=O)sc2n1 [Compound 329] | 58.4 µM | 2.03 µM
26 | Cc1cc2c(N)c(C(N)=O)sc2nc1-c1ccc(F)cc1 [Compound 330] | > 75 µM | 6.91 µM
27 | CCc1c(C)nc2sc(C(=O)NCC(=O)O)c(N)c2c1C [Compound 331] | > 75 µM | 66 µM
28 | Cc1ccc(-c2cc(C(F)(F)F)c3c(N)c(C(N)=O)sc3n2)cc1 [Compound 332] | 22.5 µM | > 75 µM
29 | NC(=O)c1sc2nc(Cc3ccccc3)cc(C(F)(F)F)c2c1N [Compound 334] | > 75 µM | 2.37 µM
30 | COc1ccc(-c2cc(-c3ccccc3)nc3sc(C(N)=O)c(N)c23)cc1 [Compound 335] | 53.9 µM | 1.41 µM
31 | CC1CCc2nc3sc(C(N)=O)c(N)c3cc2C1 (centres unmarked) [Compound 336] | > 75 µM | 2.92 µM
32 | NC(=O)c1sc2nc3ccccc3cc2c1N [Compound 337] | > 75 µM | 2.4 µM
33 | CCOC(=O)c1c(C)nc2sc(C(N)=O)c(N)c2c1-c1ccccc1 [Compound 338] | > 75 µM | 5.23 µM
34 | COc1ccc(-c2cc(-c3ccc(OC)cc3)c3c(N)c(C(N)=O)sc3n2)cc1 [Compound 339] | 38.3 µM | 1.28 µM
35 | CCOC(=O)c1sc(Cl)nc1C(F)(F)F [Compound 411] | > 75 µM | > 75 µM
36 | O=C(Nc1ccccc1)c1sc(Cl)nc1C(F)(F)F [Compound 412] | 51.7 µM | 16.7 µM
37 | O=C(Nc1cccc(F)c1)c1sc(Cl)nc1C(F)(F)F [Compound 413] | 50.7 µM | 20.7 µM
38 | O=C(Nc1cccc(C(F)(F)F)c1)c1sc(Cl)nc1C(F)(F)F [Compound 414] | 14.7 µM | 14.5 µM
39 | O=C(Nc1ccccc1F)c1sc(Cl)nc1C(F)(F)F [Compound 415] | 51.2 µM | 37.3 µM
40 | Cc1ccc(NC(=O)c2sc(Cl)nc2C)cc1C [Compound 416] | > 75 µM | 0.767 µM
41 | Cc1ccc(NC(=O)c2sc(Cl)nc2C)cc1 [Compound 417] | 51.9 µM | 1.62 µM
42 | Cc1nc(Cl)sc1C(=O)Nc1ccc(C(F)(F)F)cc1 [Compound 418] | > 75 µM | 2.18 µM
43 | Cc1nc(Cl)sc1C(=O)Nc1ccc(C(C)(C)C)cc1 [Compound 420] | > 75 µM | 6.8 µM
44 | N#Cc1ccc(NC(=O)c2sc(Cl)nc2-c2ccccc2)cc1 [Compound 421] | > 75 µM | > 75 µM
45 | Cc1ccc(NC(=O)c2sc(Cl)nc2-c2ccccc2)cc1C [Compound 422] | > 75 µM | 14.3 µM
46 | Cc1ccc(NC(=O)c2sc(Cl)nc2-c2ccccc2)c(C)c1 [Compound 423] | > 75 µM | 42.4 µM

Row | SMILES | CC50 (U1 cells) | IC50 [1]
47 | COc1ccccc1NC(=O)c1cc(Cl)nnc1Cl [Compound 511] | 17.3 µM | 14.3 µM
48 | O=C(c1cc(Cl)nnc1Cl)N1CCOCC1 [Compound 512] | > 75 µM | 26.3 µM
49 | CN1CCN(C(=O)c2cc(Cl)nnc2Cl)CC1 [Compound 513] | > 75 µM | 7.05 µM
50 | O=C(c1cc(Cl)nnc1Cl)N1CCCC1 [Compound 514] | > 75 µM | > 75 µM
51 | O=C(NCc1ccccn1)c1cc(Cl)nnc1Cl [Compound 515] | > 75 µM | 13.6 µM
52 | Oc1nc(S)ncc1-c1ccccc1 [Compound 612] | > 75 µM | > 75 µM
53 | Oc1nc(S)nc(O)c1-c1ccccc1 [Compound 613] | > 75 µM | > 75 µM
54 | O=[N+]([O-])c1ccc(-c2cnc(NO)nc2)cc1 [Compound 614] | > 75 µM | > 75 µM
55 | COc1ccc(-c2cnc(S(C)(=O)=O)nc2)cc1 [Compound 615] | > 75 µM | 11.9 µM
56 | CSc1ncc2c(n1)[nH]c1ccccc12 [Compound 616] | > 75 µM | 0.915 µM
57 | COc1ccc(-c2cnc(OC(C)(C)C)nc2OC(C)(C)C)cc1OC [Compound 617] | > 75 µM | > 75 µM
58 | COc1ccc(-c2cnc(OC(C)(C)C)nc2OC(C)(C)C)cc1 [Compound 618] | 53.6 µM | 18.3 µM
59 | Cc1cccc(-c2nc(Nc3ccc(I)cc3)c3ccccc3n2)c1 [Compound 718] | 50.1 µM | 47.2 µM
60 | Cc1ccc(Nc2ncnc3ccccc23)cc1C [Compound 719] | > 75 µM | 1.73 µM
61 | CCOC(=O)c1ccc(Nc2ncnc3ccccc23)cc1 [Compound 720] | > 75 µM | 3.66 µM
62 | FC(F)(F)c1cccc(Nc2nc(-c3ccccc3)nc3ccccc23)c1 [Compound 722] | 35 µM | 21.9 µM
63 | COC(=O)c1ccc(Nc2nc(-c3ccccc3Cl)nc3ccccc23)cc1 [Compound 728] | 17.5 µM | 13.4 µM
64 | Cc1ccc(-c2nc(Nc3ccc(I)cc3)c3ccccc3n2)cc1 [Compound 729] | > 75 µM | > 75 µM
65 | CCOc1ccccc1Nc1nc(-c2ccc(C)cc2)nc2ccccc12 [Compound 730] | > 75 µM | > 75 µM
66 | Clc1ccccc1Nc1nc(-c2ccc(Br)cc2)nc2ccccc12 [Compound 731] | > 75 µM | 1.65 µM
67 | Brc1ccc(Nc2nc(-c3ccncc3)nc3ccccc23)cc1 [Compound 734] | > 12.5 µM | 4.07 µM
